The record followed here is US20230149355A1, “COMPOSITIONS AND METHODS FOR MODULATING TRP CHANNEL ACTIVITY” (priority 2020, published 2023).

In the experiment the test system is zebrafish EECs (Trpa1). As to the kind of experiment: In vivo EEC calcium, Tg(neurod1:Gcamp6f) zebrafish. The conditions noted are these: trpa1b-dependent. How it is done: To record in vivo EEC activity using the Tg(neurod1:Gcamp6f) system, a published protocol with slight modification (Ye et al., 2019) was used. In brief, unanesthetized zebrafish larvae were gently mounted in 3% methylcellulose. Excess water was removed and zebrafish larvae were gently positioned with right side up. Zebrafish were then moved onto an upright Leica M205 FA fluorescence stereomicroscope equipped with a Leica DFC 365FX camera. The zebrafish larvae were allowed to recover for 2 mins before 100 μL of test agent was pipetted directly in front of the mouth region. Images were then recorded every 10 seconds. The data shown in FIG. 2O-R, depicting the EEC responses to E. tarda stimulation, were obtained by mounting unanesthetized zebrafish larvae in 1% low melting agarose. A window (5×5 mm) was cut to expose the head region of the zebrafish. 10 μL of E. tarda culture [˜10^9 Colony Forming Unit (CFU)] were delivered at the zebrafish mouth area. Images were recorded every 10 secs for 20 mins. Image processing and analysis were performed using FIJI software. Time-lapse fluorescence images were first aligned to correct for experimental drift using the plugin “align slices in stack.” Normalized correlation coefficient matching and bilinear interpolation methods for subpixel translation were used for aligning slices (Tseng et al., 2012). The plugin “rolling ball background subtraction” with the rolling ball radius=10 pixels was used to remove the large spatial variation of background intensities. The Gcamp6f fluorescence intensity in the intestinal region was then calculated for each time point. The ratio of maximum fluorescence (Fmax) and the initial fluorescence (F0) was used to measure EEC calcium responses.
For EEC Trpa1 activation using the Optovin platform, zebrafish larvae were treated with 10 μM Optovin overnight. Following Optovin treatment, unanesthetized zebrafish were mounted in 1% LMA and imaged under a 780 upright Zeiss confocal microscope using 20× water objective lenses. For all the experiments, the mid-intestine region was imaged (FIG. 10D). The intestinal epithelium was selected as the region of interest (ROI) (FIG. 10A). Serial images were obtained at 1 s/frame. A 405 nm pulse of light was applied to the ROI at 1 pulse/10 s. For some experiments (FIG. 7D-F, FIG. 10B-G), the images were obtained at 10 s/frame. When measuring Optovin effects on intestinal motility in ret−/−, sox10−/− or tph1b−/− zebrafish larvae, embryos were collected from heterozygous zebrafish. ret−/− zebrafish were identified by lack of ENS and deflated swim bladder (Knight et al., 2011), sox10−/− zebrafish were identified by lack of pigment (Rolig et al., 2017), and tph1b−/− zebrafish were identified by PCR-based genotyping (Tornini et al., 2017).
To determine whether Optovin-UV or ChR2 was sufficient to activate EECs, Tg(neurod1:Gcamp6f) zebrafish were used. […] The Gcamp6f signal was recorded with 488 nm laser intensity less than 0.5. The zebrafish intestinal motility is quantified through recorded image series of zebrafish intestine using the method similar as previously described (Ganz et al., 2018). […] When calculating the mean velocity, only the mean velocity magnitude was calculated, which therefore doesn't account for the movement direction. The MTrackJ FIJI plugin was used to quantify the mean velocity magnitude (Meijering et al., 2012).

On to `c1ccc2[nH]ccc2c1` [Indole], for which the “Zebrafish EEC activation (Gcamp6f fluorescence)” value is recorded as “strongly activated”.
